Laboratory results: patent US6485742B1, “Process for producing coated preparation and its use” (BASF Aktiengesellschaft, priority 1999, dated 2002)

Test: Change in appearance (browning) of filled gelatin capsules on storage
Assay type: physicochemical
Conditions: 0.4 g in gelatin capsules, sealed glass bottle, 40° C. for 30 days
Method: Each (0.4 g) of calcium L-ascorbate and the coated calcium L-ascorbate (70% L-ascorbate content) produced in Example 4 was filled in gelatin capsules (manufactured by Warner-Lambert Company, body volume 0.68 ml) and the capsules were placed in a transparent glass bottle. The bottle was sealed and stored in an incubator at 40° C. for 30 days to observe the change in appearances.

Substance: calcium L-ascorbate
- Browning of filled gelatin capsules (change in appearance): severe browning
